Consider 1 compound from patent publication US8440648B2, “Methods and compositions for treatment of intraepithelial neoplasia” (Erimos Pharmaceuticals LLC, priority 2004, dated 2013).

A short description of data set [1]: Serum levels of M4N in the fourteen day rabbit intravaginal study. The data set is classed as in vivo, New Zealand White rabbits. Particulars: M4N 20 mg/g in white petrolatum, 1 mL intravaginally daily, rabbits; levels inconsistent, minimal absorption. How it is done: Fourteen Day Rabbit Intravaginal Topical Toxicology Study. […] Ten female rabbits (5 per group) were dosed.

Data set [2] has as its system women with Cervical Intraepithelial Neoplasia. Put plainly: Pilot clinical trial of intravaginal M4N: systemic and local toxicity. The data set is classed as in vivo. The source says: (§1) This study was designed to look at the systemic and local toxicity of tetra-O-methyl NDGA (M4N) administered intravaginally to women once a week for three weeks. Patients, at the time of screening, had visible cervical lesions, were HPV positive, and had previous biopsy confirmed Cervical Intraepithelial Neoplasia (CIN). Cervical biopsies were taken at Day 1 and follow up biopsies were taken at Day 71. Five patients have been enrolled in the study, and three patients have completed the study through Day 71.
(§2) The first four patients received 5 mL of a 1% formulation of M4N in white petrolatum once weekly for each of three weekly doses. […] One patient received 5 mL of a 2% M4N formulation in white petrolatum at each of two weekly doses to date. […] The relationship to the study drug administration is unknown.

Data set [3] can be described thus: Pilot clinical trial of intravaginal M4N: serum levels. The data set is classed as in vivo. Particulars: after intravaginal administration of the 1% formulation in white petrolatum, women.
Text: as §1, §2

The subject of data set [4] is Cervical Intraepithelial Neoplasia (CIN). Put plainly: Pilot clinical trial of intravaginal M4N: preliminary efficacy from cervical biopsies. The data set is classed as in vivo, women. Particulars: three patients, 3 weekly doses of 1% M4N in white petrolatum.
Text: as §1
Preliminary efficacy data was collected from cervical biopsies at Day 1 and Day 71 from the three patients that completed the Day 71 visit after receiving 3 doses of the 1% formulation of M4N.

Data set [5] deals with New Zealand White rabbits. Put plainly: Fourteen day rabbit intravaginal topical toxicology study (local and systemic toxicity). Particulars: M4N 20 mg/g in white petrolatum.
Procedure: This study was designed to look at the local and systemic toxicity of tetra-O-methyl NDGA (M4N) administered intravaginally in New Zealand White rabbits for 14 days. Rabbits were dosed daily with 1 mL of a white petrolatum formulation of M4N (20 mg/g) or placebo. Ten female rabbits (5 per group) were dosed. Local effects of drug were scored using the Draize scoring system daily, and gross pathology and histopathology was obtained at necropsy on termination of the dosing period.
Setting [6] is: 1 mL intravaginally daily for 14 days.

Turning to `COc1ccc(C[C@@H](C)[C@@H](C)Cc2ccc(OC)c(OC)c2)cc1OC` [M4N, meso-1,4-bis(3,4-dimethoxyphenyl)-2,3-dimethylbutane], the “Serum level at peak concentration” value in data set [1] was “less than 10 ng/mL”. Also, the Irritation or toxicity entry in data set [2] (5 mL of 1% M4N in white petrolatum intravaginally once weekly, three doses, four patients) is on record as “No irritation or toxicity was reported”. For the same compound, the “Vaginal irritation or toxicity” value in data set [2] (5 mL of 2% M4N in white petrolatum intravaginally, two weekly doses, one patient) is “No vaginal irritation or toxicity was reported”. For the same compound, the Vulvar irritation entry in data set [2] (5 mL of 2% M4N in white petrolatum intravaginally, two weekly doses, one patient, relationship to drug unknown) was “minor vulvar irritation was reported”. The Serum levels entry in data set [3] was “below limit of quantification”. Further, the “Response in cervical biopsies, Day 71 versus Day 1” value in data set [4] was “one patient had a complete response, one patient had a partial response, and one patient showed disease progression”. In data set [5] (setting [6]), the “Vaginal observations: mild edema, animals affected” value is 2/5 and the “Vaginal observations: mild erythema, animals affected” value is 3/5. Besides, the “Survival until scheduled termination” value in data set [5] (1 mL intravaginally daily for 14 days, rabbits) is “All animals survived until scheduled termination”. Further, in data set [5] (1 mL intravaginally daily for 14 days, control 2/5), the “Vaginal observations: minimal edema, animals affected” value was 1/5. For the same compound, the “Weekly clinical and twice daily cage-side observations” value in data set [5] (intravaginally daily for 14 days) is “No findings were noted”. In addition, in data set [5] (intravaginally daily for 14 days, considered incidental), the Clinical pathology findings result was “lower absolute basophil counts, and ALT values”. For the same compound, the Histopathology findings result in data set [5] (intravaginally daily for 14 days, relation to drug unknown) is on record as “in one M4N-treated rabbit, heterophil infiltrates were seen in the vaginal mucosa”.
